In patent US6984404B1, “Methods for preparing coated drug particles and pharmaceutical formulations thereof” (University of Florida Research Foundation, Inc., priority 1998, dated 2006):
“And” between values parts separate entries of the source, which are not always exact repeats. Equal values may be shown once. Read-outs that look alike come from different tables or passages of the source.

Tests used:
[1] = cited from earlier work; for half-life after intravenous administration: intravenous (FP: terminal half-life)
[2] = Plasma concentration after intratracheal administration in rats; type: in vivo
Protocol: Characterization of films deposited on silicon wafers or glass slides was performed using SEM. FTIR, and NMR to characterize polymer structure and morphology. The BUD10 and BUD25 coated powders were tested in vitro to assess differences in the dissolution rates. […] Comparison of the plasma concentrations after IT administration of the coated powders with uncoated BUD powders and IV administration of BUD solution, as well as with FP after IT administration, were performed to compare absorption rates. Finally, the pulmonary targeting of coating BUD25 powders after IT administration was compared with the pulmonary targeting of uncoated BUD and FP powders after IT administration and BUD solution after IV administration. Verification of deposited polymer on silicon wafers using NMR and FTIR was used to characterize molecular structure.

plasma protein = details: cited from earlier work
[3] = cited from earlier work; for pulmonary deposition ratio, MDI: metered dose inhaler (TA: Azmacort MDI with spacer)
[4] = target: T1, glucocorticoid receptor (GR) (Homo sapiens, UniProt P04150); details: cited from earlier work
T1 sequence (P04150 1-777): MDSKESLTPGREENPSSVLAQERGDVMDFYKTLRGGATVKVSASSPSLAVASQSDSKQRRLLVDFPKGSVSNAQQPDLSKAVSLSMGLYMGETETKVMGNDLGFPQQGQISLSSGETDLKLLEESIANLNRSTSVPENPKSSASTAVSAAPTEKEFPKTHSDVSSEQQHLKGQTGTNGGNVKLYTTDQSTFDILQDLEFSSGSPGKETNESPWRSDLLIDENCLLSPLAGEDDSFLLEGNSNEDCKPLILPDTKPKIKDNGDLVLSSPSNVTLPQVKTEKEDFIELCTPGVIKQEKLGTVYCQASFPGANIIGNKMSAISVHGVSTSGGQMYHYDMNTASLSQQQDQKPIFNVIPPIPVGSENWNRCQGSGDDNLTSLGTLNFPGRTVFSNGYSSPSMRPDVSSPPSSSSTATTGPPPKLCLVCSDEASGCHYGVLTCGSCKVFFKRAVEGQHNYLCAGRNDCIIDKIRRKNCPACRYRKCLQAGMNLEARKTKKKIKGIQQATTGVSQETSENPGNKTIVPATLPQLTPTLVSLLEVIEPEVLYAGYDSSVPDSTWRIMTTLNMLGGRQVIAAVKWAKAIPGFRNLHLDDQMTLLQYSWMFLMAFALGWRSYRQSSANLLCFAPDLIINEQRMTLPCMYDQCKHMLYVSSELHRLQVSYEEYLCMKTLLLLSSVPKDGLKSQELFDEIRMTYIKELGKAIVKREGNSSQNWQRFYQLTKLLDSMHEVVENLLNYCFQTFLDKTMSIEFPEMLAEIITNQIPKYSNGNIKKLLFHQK

[5] = rats; cited from earlier work

Compound: CCCC1O[C@@H]2C[C@H]3[C@@H]4CCC5=CC(=O)C=C[C@]5(C)[C@H]4[C@@H](O)C[C@]3(C)[C@]2(C(=O)CO)O1 (stereo partly shown) [Budesonide, budesonide]
- Cmax ([1]; after inhalation via Turbohaler): 3.5 nM
- plasma half-life ([1]; approximately the same after intravenous and inhalation administration): 2.8 h
- oral bioavailability ([1]; in vivo): 11%
- volume of distribution at steady state ([1]; in vivo): 183 L
- first-pass metabolism of an oral dose ([1]; oral): About 89%
- time of peak plasma concentration [2]: 0.5 h
- MAT ([2]; calculated): 0.3 h
- plasma protein binding (plasma protein): 88%

Compound: CCC(=O)O[C@]1(C(=O)SCF)[C@H](C)C[C@H]2[C@@H]3C[C@H](F)C4=CC(=O)C=C[C@]4(C)[C@@]3(F)[C@@H](O)C[C@@]21C [FP, fluticasone propionate]
- t1/2 (dose-dependent) ([1]; Möllmann et al., 1998): 5.2 to 7.4 h and 6.0 ± 0.7 h
- terminal half-life after inhalation ([1]; Thorsson et al. 1997): 10 h
- mean absorption time (MAT) ([1]; after inhalation): 4.9 h
- oral bioavailability ([1]; in vivo): less than 1%
- clearance ([1]; in vivo): 66 L/h
- drug excreted in the feces ([1]; in vivo): 87–100%
- excreted as the inactive 17-carboxylic acid ([1]; in vivo): 340%
- volume of distribution at steady state ([1]; in vivo): 318 L
- overall bioavailability after inhalation ([1]; inhalation): 10–15%
- mean residence time after inhaled administration (AUMC/AUC) ([1]; inhaled): 9.1 ± 1.1 h and 7.8 to 11 h
- half-life after intravenous administration [1]: 7.7 to 8.3 h
- pulmonary deposition ratio, DPI ([3]; dry powder inhaler): 15%
- pulmonary deposition ratio, MDI [3]: 26%
- receptor binding affinity (RBA) [4]: 1800
- plasma protein binding (plasma protein): 90%

Compound: CC1(C)O[C@@H]2C[C@H]3[C@@H]4CCC5=CC(=O)C=C[C@]5(C)[C@@]4(F)[C@@H](O)C[C@]3(C)[C@]2(C(=O)CO)O1 [TA, triamcinolone acetonide]
- mean residence time ([1]; after intravenous administration): 2.7 h
- absorption of suspension in the lungs ([1]; by the difference in half-lives of intravenous versus inhaled doses): ~2 h
- oral bioavailability ([1]; in vivo): 20–25%
- clearance ([1]; in vivo): 37.3 L/h
- volume of distribution ([1]; in vivo): 100 to 150 L
- half-life after inhaled dose ([1]; inhaled): 3.6 h
- half-life after intravenous administration [1]: 1.4 to 2.0 h
- pulmonary deposition ratio, MDI [3]: approximately 22%
- plasma protein binding (plasma protein): 71%

Compound: CC(C)NCC(O)c1ccc(O)c(O)c1 (stereo not shown) [free isopreternol, isoproterenol]
- duration of amelioration of bronchoconstriction [5]: 30 min

Compound: Triamcinolone acetonide phosphate [TAP]
- plasma half-life ([1]; IV administration in humans): 0.05 to 0.067 h
